Laboratory results from BindingDB's records for doi:10.1021/jm050792d (University of Naples Federico II, 2005).

Assays:
[1] = target: Adenosine receptor A2a (Homo sapiens, UniProt P29274); assay: Displacement of [3H]NECA from human adenosine A2A receptor expressed in CHO cells
[2] = target: T1, Adenosine receptor A1 (Homo sapiens, UniProt P30542); assay: Displacement of [3H]DPCPX from human adenosine A1 receptor expressed in CHO cells
T1 sequence (P30542 whole entry): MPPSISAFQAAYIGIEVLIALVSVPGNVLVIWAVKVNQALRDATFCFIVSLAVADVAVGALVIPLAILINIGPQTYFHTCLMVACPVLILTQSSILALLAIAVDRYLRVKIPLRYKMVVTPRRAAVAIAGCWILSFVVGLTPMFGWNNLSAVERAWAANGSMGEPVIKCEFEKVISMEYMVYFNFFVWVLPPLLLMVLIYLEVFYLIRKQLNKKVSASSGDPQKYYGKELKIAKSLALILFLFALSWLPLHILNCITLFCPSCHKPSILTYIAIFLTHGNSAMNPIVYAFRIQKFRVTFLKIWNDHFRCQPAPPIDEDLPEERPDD

Chain of Adenosine receptor A2a (P29274 whole entry): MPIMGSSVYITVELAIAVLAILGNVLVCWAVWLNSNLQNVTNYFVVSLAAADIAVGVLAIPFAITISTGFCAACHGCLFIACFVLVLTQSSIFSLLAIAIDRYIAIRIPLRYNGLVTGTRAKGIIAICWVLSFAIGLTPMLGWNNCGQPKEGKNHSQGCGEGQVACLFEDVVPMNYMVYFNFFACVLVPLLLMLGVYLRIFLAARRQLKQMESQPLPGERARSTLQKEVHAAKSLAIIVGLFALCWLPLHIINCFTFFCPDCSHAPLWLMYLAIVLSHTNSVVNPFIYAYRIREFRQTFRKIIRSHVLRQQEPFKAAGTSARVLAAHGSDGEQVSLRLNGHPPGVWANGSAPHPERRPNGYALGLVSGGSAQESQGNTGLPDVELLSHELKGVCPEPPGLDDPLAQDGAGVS

Compound	Ki [1] [µM]	Ki [2] [µM]
O=c1c2[nH]nnc2nc2n1CCCS2 [7,8-Dihydro-3H,6H-5-thia-1,2,3,4,8a-pentaaza-cyclopenta[b]naphthalen-9-one]	> 10	> 10
CC1CSc2nc3nn[nH]c3c(=O)n21 (centres undefined) [7-methyl-6,7-dihydro[1,3]thiazolo[3,2-a][1,2,3]triazolo[4,5-d]pyrimidin-9(3H)-one]	> 10	> 10
